Measurements published in patent publication US9873702B2, “Heterocyclic compounds as biogenic amine transport modulators” (Southern Research Institute, priority 2014, dated 2018).
Read-outs that look alike come from different tables or passages of the source.

How the values were obtained:
[1] = target: T1, dopamine transporter (DAT) (Rattus norvegicus, UniProt P23977); experiment: Dopamine transporter-mediated [^3H]MPP^+ release, shift of D-amphetamine-induced release, rat caudate synaptosomes; type: biochemical; parameters: Freshly removed caudate was homogenized in 10% ice-cold sucrose; from tissue; host or cells: rat caudate synaptosomes
T1 sequence (P23977 whole entry): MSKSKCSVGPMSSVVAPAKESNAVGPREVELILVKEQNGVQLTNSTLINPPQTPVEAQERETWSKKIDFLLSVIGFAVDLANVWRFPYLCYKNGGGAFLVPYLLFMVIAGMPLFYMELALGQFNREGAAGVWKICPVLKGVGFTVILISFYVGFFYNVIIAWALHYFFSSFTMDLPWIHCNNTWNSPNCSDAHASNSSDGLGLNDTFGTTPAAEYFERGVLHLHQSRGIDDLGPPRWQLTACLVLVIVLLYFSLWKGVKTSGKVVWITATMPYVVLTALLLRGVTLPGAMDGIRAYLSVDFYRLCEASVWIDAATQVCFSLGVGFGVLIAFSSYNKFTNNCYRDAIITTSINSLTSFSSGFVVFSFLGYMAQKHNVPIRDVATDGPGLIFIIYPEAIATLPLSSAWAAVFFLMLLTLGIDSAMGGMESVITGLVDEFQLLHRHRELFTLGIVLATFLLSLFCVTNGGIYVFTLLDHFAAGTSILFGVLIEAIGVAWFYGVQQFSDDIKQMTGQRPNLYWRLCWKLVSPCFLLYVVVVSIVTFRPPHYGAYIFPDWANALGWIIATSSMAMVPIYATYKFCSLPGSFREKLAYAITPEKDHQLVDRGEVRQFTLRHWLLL

DAT = target: T2, DAT (Rattus norvegicus, UniProt P23977); experiment: Dopamine transporter binding, inhibition of [^3H]WIN35428 binding in rat caudate membranes; details: for EC50: read-out: WIN Binding EC50 (μM ± SD)
T2 construct: from tissue; host or cells: rat caudate membranes
T2 sequence (P23977 whole entry): as above
Method: The ability of test drugs to inhibit [^3H]WIN35428 binding to DAT in rat caudate membranes was assessed as follows. For each experiment, caudates from four rat brains were suspended in 15 mL ice cold assay buffer (50 mM sodium phosphate pH 7.4) and homogenized using a polytron (setting 6, 20 sec). The homogenate was centrifuged at 30,000×g for 10 minutes at 4° C. The pellet was resuspended with vigorous vortexing in 15 mL fresh ice cold assay buffer, and the centrifugation was repeated. The pellet was resuspended in 15 mL fresh ice cold assay buffer with vigorous vortexing followed by six strokes with a glass-on-glass hand-held homogenizer and was diluted to a final volume of 235 mL in ice cold assay buffer. [^3H]WIN35428 was diluted to 10 nM in assay buffer that contained 25 μg/mL chymostatin, 25 μg/mL leupeptin, 0.1 mM EDTA, and 0.1 mM EGTA. Each assay tube contained 0.75 mL membrane preparation, 0.15 mL test drug diluted in assay buffer containing 1 mg/mL bovine serum albumin, and 0.1 mL [^3H]WIN35428 preparation (final concentration of 1 nM). Assays were initiated by the addition of membranes and were terminated after 2 hours at 25° C. by rapid vacuum filtration. Retained tritium was measured as described. The data from three experiments were pooled and fit to a dose-response curve equation (using Kaleidagraph), to yield an Emax and EC50 value.

[2] = target: norepinephrine transporter (NET) (Rattus norvegicus, UniProt Q9WTR4); experiment: Norepinephrine reuptake ([^3H]norepinephrine uptake) inhibition in rat brain synaptosomes; details: for NE Uptake Emax (% I ± SD): maximal inhibition from dose-response fit
Method: Freshly removed whole brain minus cerebellum and caudate was homogenized in 10% ice-cold sucrose with 12 strokes of a hand-held Potter-Elvehjem homogenizer followed by centrifugation at 1000×g for 10 minutes. The supernatants were saved on ice and used immediately. Transporter activity at NET was assessed using 10 nM [^3H]norepinephrine. […] Uptake inhibition assays were conducted at 37° C. and were initiated by adding 100 μL of tissue to 900 μL assay buffer containing test drug and [^3H]norepinephrine. Test drugs were diluted in assay buffer containing 1 mg/mL bovine serum albumin. Nonspecific uptake was measured by incubating in the presence of 10 μM indatraline. The reactions were stopped after 10 minutes by rapid vacuum filtration with a cell harvester (BRANDEL) over GF/B filters (Whatman) presoaked in wash buffer maintained at 25° C. (10 mM Tris-HCl, pH 7.4/150 mM NaCl). Filters were rinsed with 6 mL wash buffer and retained tritium was quantified by a MicroBeta liquid scintillation counter (PerkinElmer) after overnight extraction in 0.6 mL of liquid scintillation cocktail (Cytoscint, ICN). The data from three experiments were pooled and fit to a dose-response curve equation (using Kaleidagraph), to yield an Emax and EC50 value.
(§1) The data from three experiments were pooled and fit to a dose-response curve equation (using KaleidaGraph; Synergy Software, Reading, Pa.) to yield an Emax and IC50 value.

[3] = target: T3, serotonin transporter (SERT) (Rattus norvegicus, UniProt P31652); experiment: Serotonin reuptake ([^3H]serotonin uptake) inhibition in rat brain synaptosomes; type: biochemical
T3 construct: Freshly removed whole brain minus cerebellum and caudate was homogenized; from tissue; host or cells: rat whole brain minus cerebellum and caudate, synaptosomes
T3 sequence (P31652 whole entry): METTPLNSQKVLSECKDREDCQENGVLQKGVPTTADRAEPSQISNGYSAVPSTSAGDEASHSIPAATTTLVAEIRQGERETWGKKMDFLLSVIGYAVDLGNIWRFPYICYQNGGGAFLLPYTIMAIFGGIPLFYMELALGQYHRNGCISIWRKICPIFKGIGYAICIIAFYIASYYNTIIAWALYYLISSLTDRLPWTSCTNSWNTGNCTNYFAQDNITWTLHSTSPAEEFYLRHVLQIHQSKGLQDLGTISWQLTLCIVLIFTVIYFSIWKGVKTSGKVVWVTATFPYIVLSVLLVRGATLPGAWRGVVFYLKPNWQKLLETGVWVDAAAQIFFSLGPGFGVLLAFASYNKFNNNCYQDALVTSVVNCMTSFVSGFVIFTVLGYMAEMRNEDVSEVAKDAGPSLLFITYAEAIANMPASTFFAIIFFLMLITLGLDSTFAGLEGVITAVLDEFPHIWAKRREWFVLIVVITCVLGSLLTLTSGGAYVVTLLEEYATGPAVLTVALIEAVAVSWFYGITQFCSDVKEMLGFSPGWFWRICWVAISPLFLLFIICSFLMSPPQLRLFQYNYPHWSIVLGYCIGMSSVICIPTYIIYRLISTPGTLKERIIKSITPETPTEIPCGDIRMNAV

[4] = target: T1, dopamine transporter (DAT); experiment: Dopamine reuptake ([^3H]dopamine uptake) inhibition in rat brain synaptosomes
Method: Freshly removed caudate was homogenized in 10% ice-cold sucrose with 12 strokes of a hand-held Potter-Elvehj em homogenizer followed by centrifugation at 1000×g for 10 min. The supernatants were saved on ice and used immediately. Transporter activity was assessed using 5 nM [^3H]dopamine. […] The selectivity of the uptake assay for dopamine active transporter (DAT) was optimized by including 100 nM citalopram and 100 nM desipramine as blockers of serotonin transporter (SERT) and norepinephrine transporter (NET) in the sucrose solution and assay buffer. Uptake inhibition assays were conducted at 25° C. and were initiated by adding 100 μl of tissue to 900 μL assay buffer containing test drug and [^3H]dopamine. Test drugs were diluted in assay buffer containing 1 mg/mL bovine serum albumin. Nonspecific uptake was measured by incubating in the presence of 10 μM indatraline. The reactions were stopped after 15 minutes by rapid vacuum filtration with a cell harvester (BRANDEL) over GF/B filters (Whatman) presoaked in wash buffer maintained at 25° C. (10 mM Tris-HCl, pH 7.4/150 mM NaCl). Filters were rinsed with 6 mL wash buffer and retained tritium was quantified by a MicroBeta liquid scintillation counter (PerkinElmer) after overnight extraction in 0.6 mL of liquid scintillation cocktail (Cytoscint, ICN). The data from three experiments were pooled and fit to a dose-response curve equation (using Kaleidagraph), to yield an Emax and EC50 value.
as §1

[5] = apparent Ke from shift of D-amphetamine-induced [^3H]MPP^+ release, compound at the concentration of column 1, read-out: Ke App
[6] = rat brain synaptosomes, 10 nM [^3H]norepinephrine
[7] = read-out: NE Uptake EC50 (nM ± SD), rat brain synaptosomes, 10 nM [^3H]norepinephrine, 10 min, 37° C.
[8] = mean ± S.D., n = 3, read-out: SERT Uptake Emax
[9] = mean ± S.D., n = 3, read-out: SERT Uptake IC50
[10] = DAT Uptake IC50, [3H]DA uptake inhibition, mean ± S.D., n = 3
[11] = IC50 for DAT Uptake Inhibition, rounded value as listed in Table 10
[12] = read-out: Emax for DAT Uptake Inhibition
[13] = [3H]MPP+ release, Apparent Kc = [Blocker]/((EC50-2/EC50-1) − 1), negative when shifted EC50 is less than control
[14] = 2 h, read-out: DAT Binding εmax
[15] = read-out: NET Uptake IC50, mean ± S.D., n = 3
[16] = Emax of D-amphetamine for [^3H]MPP^+ release in presence of 250 nM test compound
[17] = inhibition of [3H]WIN35428 binding, mean ± S.D., n = 3

SMILES	Kb [1, 5] [nM]	EC50 (DAT) [µM]	NE Uptake Emax (% I ± SD) [2, 6] [% I]	IC50 [2, 7] [nM]	Emax [3, 8] [%]	IC50 [3, 9] [nM]	IC50 [4, 10] [nM]	IC50 [4, 11] [nM]	Emax ([4]; read-out: DAT Uptake Emax) [%]	Emax [4, 12] [%]	Apparent Kc [1, 13] [nM]	Emax (DAT; [14]) [%]	NET Uptake Emax ([2]; mean ± S.D., n = 3) [%]	IC50 [2, 15] [nM]	further results
CN(C)c1ncc(-c2nc(NCCC(c3ccccc3)c3ccccc3)c3ccccc3n2)cn1 [compound 20, N-(3,3-Diphenylpropyl)-2-(2-(Dimethylamino)Pyrimidin-5-yl)Quinazolin-4-Amine]	64600	2.2 ± 0.5	64 ± 5	8130 ± 2270	–	–	–	–	–	–	–	–	–	–	D-Amphetamine Emax (% ± SD) ([1]; Emax of D-amphetamine for [^3H]MPP^+ release in presence of 12500 nM test compound): 103 ± 2%
Cl.Fc1ccc2c(NCC(c3ccccc3)c3ccccc3)nc(-c3ccc4nccn4c3)nc2c1 [compound 124, N-(2,2-Diphenylethyl)-7-Fluoro-2-(Imidazo[1,2-A]Pyridin-6-yl)Quinazolin-4-Amine Hydrochloride]	–	–	63 ± 3	94 ± 22	–	25 ± 7	7.4 ± 1.1	7	69 ± 1	69	–	–	63 ± 3	94 ± 22	Emax ([3]; read-out: SERT Uptake Emax): 49 ± 2%; Apparent Kc [1]: 3200 nM; Kb [1]: 3200 nM; D-Amphetamine Emax (% ± SD) ([1]; Emax of D-amphetamine for [^3H]MPP^+ release in presence of 200 nM test compound): 104 ± 5%; DAT Binding IC50 (DAT; [17]): Inactive; DAT Binding εmax (DAT; [17]): Inactive
c1ccc(C(Nc2nc(-c3ccc4[nH]ccc4c3)nc3ccccc23)c2ccccc2)cc1 [compound 13, N-Benzhydryl-2-(1H-indol-5-yl)quinazolin-4-amine]	25800	2.7 ± 0.3	62 ± 5	5850 ± 1750	–	–	–	–	–	–	–	–	–	–	IC50 ([3]; rat brain synaptosomes, 5 nM [^3H]serotonin, 30 min, 25° C., read-out: 5HT Uptake EC50 (nM ± SD)): 6380 ± 2640 nM; Emax ([3]; rat brain synaptosomes, 5 nM [^3H]serotonin, maximal inhibition from dose-response fit, read-out: 5HT Uptake Emax (% I ± SD)): 56 ± 9%; IC50 ([4]; DA Uptake EC50 (nM ± SD), rat caudate synaptosomes, 5 nM [^3H]dopamine, 15 min, 25° C., three experiments pooled): 212 ± 49 nM; Emax ([4]; read-out: DA Uptake Emax (% I ± SD)): 71 ± 3%; D-Amphetamine Emax (% ± SD) ([1]; Emax of D-amphetamine for [^3H]MPP^+ release in presence of 5000 nM test compound): 96 ± 3%; Emax (DAT; read-out: WIN Binding Emax (% I ± SD)): 77 ± 2%
CN(C)c1ccc(-c2nc(NCC(c3ccccc3)c3ccccc3)c3ccccc3n2)cc1 [SRI-29786]	–	–	–	–	–	49 ± 27	7.1 ± 2.2	7	–	70	1940	100 ± 3	68 ± 7	143 ± 61	–
c1ccc(C(CNc2nc(-c3ccc4[nH]ccc4c3)nc3ccccc23)c2ccccc2)cc1 [compound 17, N-(2,2-Diphenylethyl)-2-(1H-indol-5-yl)quinazolin-4-amine]	456	0.9 ± 0.2	70 ± 3	290 ± 52	54 ± 2	68 ± 13	10 ± 1	10	74 ± 1	74	456	87 ± 4	70 ± 3	290 ± 52	D-Amphetamine Emax (% ± SD) [1, 16]: 94 ± 2%
CN(C)c1ncc(-c2nc(NCC(O)(c3ccccc3)c3ccccc3)c3ccccc3n2)cn1 [compound 80, 2-((2-(2-(Dimethylamino)Pyrimidin-5-yl)Quinazolin-4-yl)Amino)-1,1-Diphenylethanol]	–	–	71 ± 2	259 ± 41	51 ± 1	54 ± 7	13 ± 2	–	73 ± 2	–	–	47 ± 6	71 ± 2	259 ± 41	–
Cn1cc2cc(-c3nc(NCC(c4ccccc4)c4ccccc4)c4ccccc4n3)ccc2n1 [compound 66, N-(2,2-Diphenylethyl)-2-(2-Methyl-2H-Indazol-5-yl)Quinazolin-4-Amine]	–	–	71 ± 3	229 ± 43	61 ± 2	106 ± 19	19 ± 4	–	69 ± 2	–	–	58 ± 3	71 ± 3	229 ± 43	–
Cc1cc(NS(C)(=O)=O)ccc1-c1nc(NCC(c2ccccc2)c2ccccc2)c2ccccc2n1 [SRI-30828]	–	–	–	–	–	20 ± 5	8.9 ± 1.6	–	–	–	–	60 ± 7	65 ± 3	144 ± 30	–
c1ccc(C(CCNc2nc(-c3ccc4[nH]ccc4c3)nc3ccccc23)c2ccccc2)cc1 [compound 21, N-(3,3-Diphenylpropyl)-2-(1H-Indol-5-yl)Quinazolin-4-Amine]	886	0.2	77 ± 3	346 ± 59	–	–	–	–	–	–	–	–	–	–	D-Amphetamine Emax (% ± SD) ([1]; Emax of D-amphetamine for [^3H]MPP^+ release in presence of 500 nM test compound): 78 ± 2%; effect on the d-amphetamine Emax value, in words ([1]; d-amphetamine-induced DAT-mediated [^3H]MPP^+ release, blocking concentration ˜25 times IC50 for DAT uptake inhibition): no significant effect

Now from value to compound, other results behind:

Kb [1, 5] [nM]	EC50 (DAT) [µM]	NE Uptake Emax (% I ± SD) [2, 6] [% I]	IC50 [2, 7] [nM]	Emax [3, 8] [%]	IC50 [3, 9] [nM]	IC50 [4, 10] [nM]	IC50 [4, 11] [nM]	Emax ([4]; read-out: DAT Uptake Emax) [%]	Emax [4, 12] [%]	Apparent Kc [1, 13] [nM]	Emax (DAT; [14]) [%]	NET Uptake Emax ([2]; mean ± S.D., n = 3) [%]	IC50 [2, 15] [nM]	SMILES	further results
–	–	69 ± 2	63 ± 9	51 ± 1	4.7 ± 0.6	2.1 ± 0.3	2	68 ± 1	68	-1070	18 ± 4	69 ± 2	63 ± 9	c1ccc(C(CNc2nc(-c3cnc4nccn4c3)nc3ccccc23)c2ccccc2)cc1 [compound 89, N-(2,2-Diphenylethyl)-2-(Imidazo[1,2-A]Pyrimidin-6-yl)Quinazolin-4-Amine]	D-Amphetamine Emax (% ± SD) ([1]; Emax of D-amphetamine for [^3H]MPP^+ release in presence of 50 nM test compound): 102 ± 2%
–	–	70 ± 4	11 ± 4	54 ± 2	3.1 ± 0.7	1.2 ± 0.1	1	69 ± 1	69	55	91 ± 7	70 ± 4	11 ± 4	Cc1cc2nccn2cc1-c1nc(NCC(c2ccccc2)c2ccc[nH]2)c2ccccc2n1 (centres unmarked) [compound 140, 2-(7-Methylimidazo[1,2-A]Pyridin-6-yl)-N-(2-Phenyl-2-(1H-Pyrrol-2-yl)Ethyl)Quinazolin-4-Amine]	D-Amphetamine Emax (% ± SD) ([1]; Emax of D-amphetamine for [^3H]MPP^+ release in presence of 25 nM test compound): 105 ± 3%
–	–	40 ± 5	86 ± 55	35 ± 3	13 ± 6	8.8 ± 1.1	9	63 ± 1	63	–	–	40 ± 5	86 ± 55	c1ccc(C(CNc2nc(-c3ccc4ncnn4c3)nc3ccccc23)c2ccccc2)cc1 [compound 105, 2-([1,2,4]Triazolo[1,5-A]Pyridin-6-yl)-N-(2,2-Diphenylethyl)Quinazolin-4-Amine]	D-Amphetamine Emax (% ± SD) [1, 16]: 105 ± 4%; DAT Binding εmax (DAT; [17]): Inactive
1600	–	70 ± 2	95 ± 12	54 ± 1	23 ± 3	6 ± 0.7	6	70 ± 1	70	1600	43 ± 4	70 ± 2	95 ± 12	c1ccc(C(CNc2nc(-c3cnc4nccn4c3)nc3ccccc23)C2CCCCC2)cc1 (centres unmarked) [compound 102, N-(2-Cyclohexyl-2-Phenylethyl)-2-(Imidazo[1,2-A]Pyrimidin-6-yl)Quinazolin-4-Amine]	D-Amphetamine Emax (% ± SD) ([1]; Emax of D-amphetamine for [^3H]MPP^+ release in presence of 150 nM test compound): 104 ± 4%
